Source: US9309242B2, “Substituted pyrido[2,3-b]pyrazines as FGFR kinase inhibitors” (priority 2011, dated 2016)
Read-outs that look alike come from different tables or passages of the source.

Key:
FGFR1 (h) = FGFR1 (h) (Homo sapiens, UniProt P11362); assay: FGFR1 (enzymatic assay), TR-FRET; assay type: biochemical; settings: average values if tested multiple times, read-out: FGFR 1 pIC50 (converted)
[1] = tested on: Ba/F3-FGFR3-transfected cells; assay: Ba/F3-FGFR3 (plus IL3) cellular proliferation assay, counterscreen with 10 ng/ml murine IL3; assay type: cell-based; settings: read-out: BAF3-FGFR3 (PLUS IL3) pIC50 (converted)
Outline: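 Compound dilutions were dispensed first, then 20000 FGFR3-transfected Ba/F3 cells per well in serum-containing RPMI-1640 were added. After 24 h incubation at 37° C, Alamar Blue was applied for 4 h before relative fluorescence units were recorded. In the minus-IL3 format cells grow without cytokine; the other format contains 10 ng/ml murine IL3.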

[2] = biological target: T1, Ba/F3-KDR-transfected cells (Homo sapiens, UniProt P35968); assay: Ba/F3-KDR (minus IL3) cellular proliferation assay, Alamar Blue; assay type: cell-based
T1 construct: BAF3-KDR (MIN IL3) pIC50; other: minus IL3
Outline: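 Ba/F3-KDR cells (20000 per well) in phenol red-free RPMI-1640 with 10% FBS were exposed to compound for 24 hours at 37° C, 5% CO2. Alamar Blue (resazurin) was then added for 4 hours, and fluorescence was read at ex. 540 nm/em. 590 nm.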

[3] = biological target: T2, Ba/F3-Flt3-transfected cells (Homo sapiens, UniProt P36888, cells depend on it, form not given); assay: Ba/F3-Flt3 (minus IL3) cellular proliferation assay, Alamar Blue; assay type: cell-based
T2 construct: BAF3-FLT3 (MIN IL3) pIC50; other: minus IL3
T2 sequence (P36888 1-993): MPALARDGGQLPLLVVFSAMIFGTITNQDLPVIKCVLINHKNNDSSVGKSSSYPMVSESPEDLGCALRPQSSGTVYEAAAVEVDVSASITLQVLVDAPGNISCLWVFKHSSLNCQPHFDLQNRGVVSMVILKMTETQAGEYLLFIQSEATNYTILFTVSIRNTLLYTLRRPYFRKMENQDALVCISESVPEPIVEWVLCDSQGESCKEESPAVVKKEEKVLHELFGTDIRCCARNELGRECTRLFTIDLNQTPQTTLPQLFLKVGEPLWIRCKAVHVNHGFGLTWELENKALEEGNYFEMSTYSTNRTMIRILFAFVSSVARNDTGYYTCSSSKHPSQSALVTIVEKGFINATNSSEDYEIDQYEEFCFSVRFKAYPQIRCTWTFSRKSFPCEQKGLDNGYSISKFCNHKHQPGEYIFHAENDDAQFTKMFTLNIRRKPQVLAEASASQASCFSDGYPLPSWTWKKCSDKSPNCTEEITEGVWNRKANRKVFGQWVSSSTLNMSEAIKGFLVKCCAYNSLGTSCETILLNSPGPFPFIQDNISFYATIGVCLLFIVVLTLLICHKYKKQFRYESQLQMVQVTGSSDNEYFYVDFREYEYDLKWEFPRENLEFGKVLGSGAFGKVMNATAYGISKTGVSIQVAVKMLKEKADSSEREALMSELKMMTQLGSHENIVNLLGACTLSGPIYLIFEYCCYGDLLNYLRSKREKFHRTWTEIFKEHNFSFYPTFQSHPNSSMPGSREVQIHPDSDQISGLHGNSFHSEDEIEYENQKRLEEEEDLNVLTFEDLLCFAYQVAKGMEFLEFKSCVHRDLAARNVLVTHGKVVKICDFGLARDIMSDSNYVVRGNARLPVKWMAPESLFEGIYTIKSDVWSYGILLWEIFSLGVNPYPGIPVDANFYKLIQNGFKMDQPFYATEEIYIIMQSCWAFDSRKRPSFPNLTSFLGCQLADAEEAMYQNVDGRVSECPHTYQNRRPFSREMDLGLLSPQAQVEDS
Procedure: (§1) Ba/F3-Flt3 (Minus IL3 or Plus IL3) (Cellular Proliferation Assay)
In a 384 well plate, 100 nl of compound dilution in DMSO was sprayed before adding 50 μl cell culture medium (phenol red free RPMI-1640, 10% FBS, 2 mM L-Glutamine and 50 μg/ml Gentamycin) containing 20000 cells per well of Ba/F3-Flt3-transfected cells. Cells were put in an incubator at 37° C. and 5% CO2. After 24 hours, 10 μl of Alamar Blue solution (0.5 mM K3Fe(CN)6, 0.5 mM K4Fe(CN)6, 0.15 mM Resazurin and 100 mM Phosphate Buffer) was added to the wells, incubated for 4 hours at 37° C. and 5% CO2 before RFU's (Relative Fluorescence Units) (ex. 540 nm., em. 590 nm.) were measured in a fluororescence plate reader. […]

[4] = tested on: Ba/F3-Flt3-transfected cells; assay: Ba/F3-Flt3 (plus IL3) cellular proliferation assay, counterscreen with 10 ng/ml murine IL3; assay type: cell-based; settings: read-out: BAF3_FLT3 (PLUS IL3) pIC50 (converted)
Procedure: as §1
In a 384 well plate, 100 nl of compound dilution in DMSO was sprayed before adding 50 μl cell culture medium (phenol red free RPMI-1640, 10% FBS, 2 mM L-Glutamine and 50 μg/ml Gentamycin) containing 20000 cells per well of Ba/F3-Flt3-transfected cells. Cells were put in an incubator at 37° C. and 5% CO2. After 24 hours, 10 μl of Alamar Blue solution (0.5 mM K3Fe(CN)6, 0.5 mM K4Fe(CN)6, 0.15 mM Resazurin and 100 mM Phosphate Buffer) was added to the wells, incubated for 4 hours at 37° C. and 5% CO2 before RFU's (Relative Fluorescence Units) (ex. 540 nm., em. 590 nm.) were measured in a fluororescence plate reader.
As a counterscreen the same experiment was performed in the presence of 10 ng/ml murine IL3.

[5] = plus IL3 (10 ng/ml murine IL3, counterscreen)

Chain of FGFR1 (h) (P11362 22-822): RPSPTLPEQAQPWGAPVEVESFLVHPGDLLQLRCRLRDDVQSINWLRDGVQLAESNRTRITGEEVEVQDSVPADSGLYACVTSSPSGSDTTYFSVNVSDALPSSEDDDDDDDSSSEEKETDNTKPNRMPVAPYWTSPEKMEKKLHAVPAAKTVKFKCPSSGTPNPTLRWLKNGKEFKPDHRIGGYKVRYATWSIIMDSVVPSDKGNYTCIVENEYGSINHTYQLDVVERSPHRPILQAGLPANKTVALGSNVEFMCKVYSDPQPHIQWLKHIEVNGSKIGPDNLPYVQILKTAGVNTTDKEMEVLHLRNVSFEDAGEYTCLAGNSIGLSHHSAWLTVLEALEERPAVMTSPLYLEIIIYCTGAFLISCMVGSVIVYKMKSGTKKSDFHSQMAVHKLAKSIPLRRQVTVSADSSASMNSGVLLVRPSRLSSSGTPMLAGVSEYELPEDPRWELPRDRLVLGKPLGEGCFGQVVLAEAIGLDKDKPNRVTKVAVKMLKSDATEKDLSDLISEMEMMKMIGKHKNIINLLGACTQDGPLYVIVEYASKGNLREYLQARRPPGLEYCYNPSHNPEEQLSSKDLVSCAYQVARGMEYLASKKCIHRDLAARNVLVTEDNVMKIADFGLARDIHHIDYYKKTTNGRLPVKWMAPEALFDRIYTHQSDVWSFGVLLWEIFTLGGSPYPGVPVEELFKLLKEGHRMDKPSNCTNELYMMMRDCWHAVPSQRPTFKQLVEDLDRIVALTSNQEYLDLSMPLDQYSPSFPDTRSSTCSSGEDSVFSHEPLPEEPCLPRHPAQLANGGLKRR
T1 sequence (P35968 whole entry, change not shown): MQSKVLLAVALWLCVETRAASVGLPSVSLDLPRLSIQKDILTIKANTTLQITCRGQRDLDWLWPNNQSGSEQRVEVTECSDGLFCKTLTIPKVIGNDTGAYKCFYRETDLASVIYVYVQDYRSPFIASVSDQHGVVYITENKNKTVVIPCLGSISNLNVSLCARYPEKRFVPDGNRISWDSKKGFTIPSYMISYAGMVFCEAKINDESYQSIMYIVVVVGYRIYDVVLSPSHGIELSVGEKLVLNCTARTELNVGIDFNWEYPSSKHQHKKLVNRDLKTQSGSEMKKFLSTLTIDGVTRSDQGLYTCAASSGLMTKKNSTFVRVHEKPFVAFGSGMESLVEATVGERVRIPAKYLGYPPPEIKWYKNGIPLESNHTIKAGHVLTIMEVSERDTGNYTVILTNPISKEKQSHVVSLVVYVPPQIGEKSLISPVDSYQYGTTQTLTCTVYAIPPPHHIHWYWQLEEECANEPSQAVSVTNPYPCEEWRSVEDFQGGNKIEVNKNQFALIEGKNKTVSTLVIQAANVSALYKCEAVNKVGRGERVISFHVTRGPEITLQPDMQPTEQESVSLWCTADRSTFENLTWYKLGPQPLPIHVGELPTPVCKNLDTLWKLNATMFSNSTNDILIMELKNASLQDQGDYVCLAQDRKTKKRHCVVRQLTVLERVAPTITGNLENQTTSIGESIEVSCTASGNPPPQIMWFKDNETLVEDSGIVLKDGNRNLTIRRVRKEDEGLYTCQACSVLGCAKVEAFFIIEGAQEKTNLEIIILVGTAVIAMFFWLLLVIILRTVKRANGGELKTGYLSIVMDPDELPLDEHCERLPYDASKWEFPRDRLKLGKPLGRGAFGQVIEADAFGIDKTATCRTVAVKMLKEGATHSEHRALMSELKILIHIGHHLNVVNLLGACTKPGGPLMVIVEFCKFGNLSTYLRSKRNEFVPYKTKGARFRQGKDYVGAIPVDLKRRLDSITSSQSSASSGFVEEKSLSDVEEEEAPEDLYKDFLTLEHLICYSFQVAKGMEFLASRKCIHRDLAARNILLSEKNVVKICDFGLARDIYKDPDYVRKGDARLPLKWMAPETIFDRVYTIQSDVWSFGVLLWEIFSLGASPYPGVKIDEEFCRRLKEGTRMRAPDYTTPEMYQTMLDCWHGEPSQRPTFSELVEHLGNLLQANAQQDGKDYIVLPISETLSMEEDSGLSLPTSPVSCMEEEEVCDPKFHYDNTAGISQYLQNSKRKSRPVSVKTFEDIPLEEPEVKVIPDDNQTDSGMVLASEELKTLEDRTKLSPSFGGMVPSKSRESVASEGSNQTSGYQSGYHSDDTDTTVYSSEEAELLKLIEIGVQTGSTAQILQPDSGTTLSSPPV

Row | Structure (SMILES) | IC50 (FGFR1 (h)) | IC50 [1] | BAF3-KDR (MIN IL3) pIC50 [2] | BAF3-FLT3 (MIN IL3) pIC50 [3] | IC50 [4] | melting point | IC50 [1, 5] | IC50 [4, 5]
1 | COc1cc(OC)c(F)c(N(Cc2ncccn2)c2ccc3ncc(-c4cnn(C)c4)nc3n2)c1 [Compound 9] | 0.00562 µM | > 10 µM | 5.95 | <5 | > 10 µM | 227 °C |  | 
2 | COc1cc(OC)c(F)c(N(CCCO)c2ccc3ncc(-c4cnn(C)c4)nc3n2)c1F (single isomer, unassigned) [Compound 16] | 0.01 µM |  | 6.2 | 5.18 |  | 208 °C | > 10 µM | > 10 µM
3 | COc1cc(OC)c(F)c(N(Cc2cnccn2)c2ccc3ncc(-c4cnn(C)c4)nc3n2)c1F [Compound 10] | 0.0158 µM |  | 6.2 | 5.12 |  |  | > 10 µM | > 10 µM
4 | COc1cc(OC)c(F)c(N(Cc2cn(S(=O)(=O)N(C)C)cn2)c2ccc3ncc(-c4cnn(C)c4)nc3n2)c1 [Compound 36] | 0.00155 µM |  | 5.67 | <5 |  |  | > 10 µM | > 10 µM
5 | Cn1cc(-c2cnc3ccc(N(Cc4ncc[nH]4)c4cc(F)cc(F)c4)nc3n2)cn1 [Compound 27] | 0.0191 µM |  | <5 | <5 |  |  | > 10 µM | > 10 µM
6 | COCC(O)CN(c1cc(OC)cc(OC)c1)c1ccc2ncc(-c3cnn(C)c3)nc2n1 (centres unmarked) [Compound 7] | 0.00316 µM |  | 5.1 | <5 |  | 65 °C | > 10 µM | > 10 µM
7 | COc1cc(OC)cc(N(CC#Cc2ncccc2OC)c2ccc3ncc(-c4cnn(C)c4)nc3n2)c1 [Compound 26] | 0.0501 µM |  | <5 | <5 |  | 190 °C | > 10 µM | > 10 µM
8 | COc1cc(/N=c2\ccc3ncc(-c4cnn(C)c4)nc3n2CCNC(C)C)c(F)c(OC)c1 [Compound 37] | 0.00162 µM |  | 6.11 | <5 |  |  | > 10 µM | > 10 µM
